“And” between values parts separate entries of the source, which are not always exact repeats. Equal values may be shown once.
Columns and labels:
[1] = tested on: thermal hyperalgesia in SCI animals; test: Tail flick thermal nociception in contusion SCI rats; type: in vivo, Long-Evans rats; details: for % analgesia (maximum possible effect, MPE), tail flick latency: drug alone, s.c. 30 mins prior to testing, morphine 2 mg/kg; for % Analgesia scores, injection of drug alone, compared to morphine alone (52.01%) / % analgesia (MPE), tail flick latency, drug added to morphine: rat, in vivo
patients with pain = details: clinical study using morphine to treat pain; cited from earlier work
DIR receptor = DIR receptor (Homo sapiens, UniProt P21728); details: Millan, Maiofiss et al. 2002; Chen, Collins et al. 2008; cited from earlier work
[2] = tested on: thermal hyperalgesia in SCI animals; details: rodent SCI model; Rodgers et al. 2019, 2020; cited from earlier work
[3] = morphine nonresponsive SCI animals (n=18), pramipexole 0.1 mg/kg, SCH 39166 0.1 mg/kg

DIR receptor, sequence (P21728 whole entry): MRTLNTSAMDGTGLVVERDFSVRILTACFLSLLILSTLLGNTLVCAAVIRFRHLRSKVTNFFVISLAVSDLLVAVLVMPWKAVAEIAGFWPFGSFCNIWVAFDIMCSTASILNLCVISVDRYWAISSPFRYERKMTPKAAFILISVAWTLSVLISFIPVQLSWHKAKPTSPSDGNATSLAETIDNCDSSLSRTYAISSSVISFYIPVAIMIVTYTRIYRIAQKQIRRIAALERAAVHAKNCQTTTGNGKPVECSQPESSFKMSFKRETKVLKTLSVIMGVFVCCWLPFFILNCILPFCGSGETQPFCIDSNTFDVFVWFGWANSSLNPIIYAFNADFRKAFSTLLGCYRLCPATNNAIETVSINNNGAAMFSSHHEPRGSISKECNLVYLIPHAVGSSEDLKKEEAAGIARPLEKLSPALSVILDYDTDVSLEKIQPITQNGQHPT

| Structure (SMILES) | % analgesia (maximum possible effect, MPE), tail flick latency [1, 3] | % Analgesia scores, injection of drug alone, compared to morphine alone (52.01%) [1] | % analgesia (MPE), tail flick latency, drug added to morphine [1] | Patients who continued morphine treatment for pain management for more than 12 months (patients with pain) | Patients who failed to respond to morphine treatment (patients with pain) | Binding to the DIR receptor (DIR receptor) | Share of SCI animals in which an acute injection of morphine provided analgesia ([1]; morphine 2 mg/kg s.c., n=8 of 26 SCI animals) | % analgesia (maximum possible effect, MPE), tail flick latency ([1]; morphine responsive SCI animals (n=8)) | Share of SCI animals responsive to morphine (earlier studies) [2] |
| --- | --- | --- | --- | --- | --- | --- | --- | --- | --- |
| CN1CCc2cc(Cl)c(O)cc2[C@H]2c3ccccc3CC[C@@H]21 [SCH 39166] | −37.5%±6.99 | −21.07%±10.46 | 18.79%±13.547 and 29.56%+11.51 | – | – | – | – | – | – |
| CN1CC[C@]23c4c5ccc(O)c4O[C@H]2[C@@H](O)C=C[C@H]3[C@H]1C5 [morphine] | −24.48%±6.241 | – | – | 15% | more than 50% | neither morphine nor pramipexole bind to the DIR receptor | one third | 52.01%±3.494 | ⅓ and one third |
| CCCN[C@H]1CCc2nc(N)sc2C1 [pramipexole] | −7.27%±11.06 | 12.87%±15.84 | 96.98%±1.985 and 64.38%±10.37 | – | – | – | – | – | – |
